Assay results as given in the NIST ThermoML archive (doi:10.1016/j.jct.2004.07.027).

Assay: mn = molality of the nth substance listed, in mol/kg
Settings: 350 kPa, Liquid, Extra sensitive DSC

C1COCCOCCOCCOCCOCCO1 [1,4,7,10,13,16-hexaoxacyclooctadecane] + O
apparent molar heat capacity [J/K/mol]
Settings	308.15 K	313.15 K	318.15 K	323.15 K	328.15 K	333.15 K
m1 = 0.01001	852.1	866.4	881.2	893	904.7	915.3
m1 = 0.02001	847.8	862	875.7	888.8	900.1	910.7
m1 = 0.03002	848.2	862.5	875.9	888.4	900.3	911
m1 = 0.0401	852.3	867.6	881.8	894.9	907.2	918.1
m1 = 0.04995	853.8	868.8	882.5	895.6	907.7	918.5
m1 = 0.06015	853.6	868.4	882.3	895.5	907.3	918
m1 = 0.08002	852.2	867.4	881.7	894.7	906.8	917.5
m1 = 0.1224	851.14	866.13	880.23	893.76	905.99	916.74
m1 = 0.1472	850.86	866.03	880.31	893.83	906.11	917.09
m1 = 0.1935	849	864.46	878.85	892.3	904.68	915.79
m1 = 0.2925	846.24	862.08	876.99	890.8	903.37	914.65
